The text below walks through data of patent EP4667483A1, “HUMAN TRANSFERRIN RECEPTOR-BINDING PEPTIDE” (JCR Pharmaceuticals Co., Ltd., priority 2023, dated 2024).

The target of assay [1] is T1, human transferrin receptor (hTfR) (Homo sapiens, UniProt P02786). Put plainly: SPR measurement under pH 7.4 conditions (Biacore T200, CM3 chip, hTfR captured by His Tag antibody). Format: binding. Conditions: SPR, pH 7.4; peptide with the linker named in the table; read-out: hTfR SPR pH7.4 KD. In general terms: In SPR one partner is held on a chip, and binding of the other changes the refractive index at the surface.

Assay [2] addresses T1, human transferrin receptor (hTfR). Put plainly: SPR measurement under pH 6.0 conditions (Biacore T200, NTA chip, immobilized hTfR). Format: binding. Conditions: SPR, pH 6.0; peptide with the linker named in the table; read-out: hTfR SPR pH6.0 KD.

Each structure is given as a SMILES string. Numbered stars: 1 amine (or outer) side, 2 acyl side, 3 side chain; on linkers, the order of the positions; unused ones are H or OH. Bridge positions count the residues as written; N and C are the ends. Square brackets hold non-standard residues; d marks the D form. Peptide text beside a SMILES is read from it. * marks the point of attachment. Trp(1-CH2COOH) = N[C@@H](Cc1cn(CC(=O)O)c2ccccc12)C(=O)O; NMePhe(4-COOH) = CN[C@@H](Cc1ccc(C(=O)O)cc1)C(=O)O; Ala(2-NH2-4-pyridyl) = Nc1cc(C[C@H](N)C(=O)O)ccn1; Nle(6-morpholino) = N[C@@H](CCCCN1CCOCC1)C(=O)O; Phe(3-COOH) = N[C@@H](Cc1cccc(C(=O)O)c1)C(=O)O; Trp(7-aza) = N[C@@H](Cc1c[nH]c2ncccc12)C(=O)O; NH(CH2CH2O)8Me = COCCOCCOCCOCCOCCOCCOCCOCCN*; NMePhe(3-Cl) = CN[C@@H](Cc1cccc(Cl)c1)C(=O)O; 3Pal(6-OMe) = COc1ccc(C[C@H](N)C(=O)O)cn1; X5 = COc1cc(C[C@H](N[*:1])C(=O)[*:2])ccn1; 3Pal(6-NH2) = Nc1ccc(C[C@H](N)C(=O)O)cn1; NMeY = CN[C@@H](Cc1ccc(O)cc1)C(=O)O; Nva(3-Et) = CCC(CC)[C@H](N)C(=O)O; 3Pal = N[C@@H](Cc1cccnc1)C(=O)O; PEG4 = NCCOCCOCCOCCOCCC(=O)O; Carboxymethyl = O=C(O)C*

T1 sequence (P02786 whole entry): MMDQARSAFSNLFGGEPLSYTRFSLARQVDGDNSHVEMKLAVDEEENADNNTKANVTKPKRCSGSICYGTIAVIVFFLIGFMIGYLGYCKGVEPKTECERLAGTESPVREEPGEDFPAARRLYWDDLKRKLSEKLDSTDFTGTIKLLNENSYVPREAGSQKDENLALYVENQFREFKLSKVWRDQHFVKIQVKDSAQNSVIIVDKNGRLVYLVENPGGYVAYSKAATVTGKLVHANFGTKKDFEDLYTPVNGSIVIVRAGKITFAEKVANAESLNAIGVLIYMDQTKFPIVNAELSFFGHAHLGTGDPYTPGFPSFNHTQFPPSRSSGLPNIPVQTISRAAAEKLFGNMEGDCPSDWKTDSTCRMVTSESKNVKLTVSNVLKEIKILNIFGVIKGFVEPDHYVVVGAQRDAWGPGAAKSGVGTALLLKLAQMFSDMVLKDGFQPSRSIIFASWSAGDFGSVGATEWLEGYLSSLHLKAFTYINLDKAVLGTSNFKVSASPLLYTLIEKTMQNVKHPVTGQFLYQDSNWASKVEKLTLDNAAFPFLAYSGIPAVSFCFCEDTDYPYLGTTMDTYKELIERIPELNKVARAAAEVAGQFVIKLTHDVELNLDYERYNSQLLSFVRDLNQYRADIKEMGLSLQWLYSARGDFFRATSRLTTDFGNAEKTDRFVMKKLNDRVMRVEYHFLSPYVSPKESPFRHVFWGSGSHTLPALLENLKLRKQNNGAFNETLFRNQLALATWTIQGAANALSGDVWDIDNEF

`CCC(CC)[C@@H]1NC(=O)[C@H](Cc2ccc(OCC(=O)O)cc2)NC(=O)[C@H](Cc2ccc(O)cc2)NC(=O)[C@H](CC(N)=O)NC(=O)[C@H](Cc2cn(CC(=O)O)c3ccccc23)NC(=O)[C@H](C(C)C)NC(=O)[C@H](Cc2cccc(Cl)c2)N(C)C(=O)[C@H](C(C)C)NC(=O)[C@H](C)NC(=O)CSC[C@@H](C(=O)NCCOCCOCCOCCOCCC(N)=O)NC(=O)[C@H](Cc2ccc(O)cc2)N(C)C(=O)[C@H](Cc2ccc(OC)nc2)NC(=O)[C@H](CCCNC(=N)N)NC(=O)[C@H](CCC(N)=O)NC(=O)[C@H]([C@@H](C)CC)NC1=O` [compound 101] ({CH2CO}-AV[NMePhe(3-Cl)]V[Trp(1-CH2COOH)]NYY(Carboxymethyl)[Nva(3-Et)]IQR[3Pal(6-OMe)][NMeY]C[PEG4]-NH2; thioether N-15): the Kd (in general, a measure of binding affinity in units of concentration) worked out at 8.63 nM in assay [1] and 66.7 nM in assay [2].

For `CCC(CC)[C@@H]1NC(=O)[C@H](Cc2ccc(OCC(=O)O)cc2)NC(=O)[C@H](Cc2ccc(O)cc2)NC(=O)[C@H](CC(N)=O)NC(=O)[C@H](Cc2cn(CC(=O)O)c3ccccc23)NC(=O)[C@H](C(C)C)NC(=O)[C@H](Cc2cccc(Cl)c2)N(C)C(=O)[C@H](C(C)C)NC(=O)[C@H](C)NC(=O)CSC[C@@H](C(=O)NCCOCCOCCOCCOCCC(N)=O)NC(=O)[C@H](Cc2ccc(O)cc2)N(C)C(=O)[C@H](Cc2ccc(N)nc2)NC(=O)[C@H](CCCNC(=N)N)NC(=O)[C@H](CCC(N)=O)NC(=O)[C@H]([C@@H](C)CC)NC1=O` [compound 102] ({CH2CO}-AV[NMePhe(3-Cl)]V[Trp(1-CH2COOH)]NYY(Carboxymethyl)[Nva(3-Et)]IQR[3Pal(6-NH2)][NMeY]C[PEG4]-NH2; thioether N-15), the Kd was 9.81 nM in assay [1] and 76.4 nM in assay [2].

`CCC(CC)[C@@H]1NC(=O)[C@H](Cc2ccc(OCC(=O)O)cc2)NC(=O)[C@H](Cc2ccc(O)cc2)NC(=O)[C@H](CC(N)=O)NC(=O)[C@H](Cc2cn(CC(=O)O)c3ccccc23)NC(=O)[C@H](C(C)C)NC(=O)[C@H](Cc2cccc(Cl)c2)N(C)C(=O)[C@H](C(C)C)NC(=O)[C@H](C)NC(=O)CSC[C@@H](C(=O)NCCOCCOCCOCCOCCC(N)=O)NC(=O)[C@H](Cc2ccc(O)cc2)N(C)C(=O)[C@H](Cc2ccnc(OC)c2)NC(=O)[C@H](CCCNC(=N)N)NC(=O)[C@H](CCC(N)=O)NC(=O)[C@H]([C@@H](C)CC)NC1=O` [compound 103] ({CH2CO}-AV[NMePhe(3-Cl)]V[Trp(1-CH2COOH)]NYY(Carboxymethyl)[Nva(3-Et)]IQR[X5][NMeY]C[PEG4]-NH2; thioether N-15): the values for the Kd in assay [1] and in assay [2] were 11.5 nM and 95 nM, respectively.

In the case of `CCC(CC)[C@@H]1NC(=O)[C@H](Cc2ccc(OCC(=O)O)cc2)NC(=O)[C@H](Cc2ccc(O)cc2)NC(=O)[C@H](CC(N)=O)NC(=O)[C@H](Cc2cn(CC(=O)O)c3ccccc23)NC(=O)[C@H](C(C)C)NC(=O)[C@H](Cc2cccc(Cl)c2)N(C)C(=O)[C@H](C(C)C)NC(=O)[C@H](C)NC(=O)CSC[C@@H](C(=O)NCCOCCOCCOCCOCCC(N)=O)NC(=O)[C@H](Cc2ccc(O)cc2)N(C)C(=O)[C@H](Cc2ccnc(N)c2)NC(=O)[C@H](CCCNC(=N)N)NC(=O)[C@H](CCC(N)=O)NC(=O)[C@H]([C@@H](C)CC)NC1=O` [compound 104] ({CH2CO}-AV[NMePhe(3-Cl)]V[Trp(1-CH2COOH)]NYY(Carboxymethyl)[Nva(3-Et)]IQR[Ala(2-NH2-4-pyridyl)][NMeY]C[PEG4]-NH2; thioether N-15), the dissociation constant Kd in assay [1] worked out at 10.7 nM; in assay [2] it was 78.2 nM.

Turning to `CCC(CC)[C@@H]1NC(=O)[C@H](Cc2ccc(OCC(=O)O)cc2)NC(=O)[C@H](Cc2ccc(O)cc2)NC(=O)[C@H](CC(N)=O)NC(=O)[C@H](Cc2cn(CC(=O)O)c3ccccc23)NC(=O)[C@H](C(C)C)NC(=O)[C@H](Cc2cccc(Cl)c2)N(C)C(=O)[C@H](C(C)C)NC(=O)[C@H](C)NC(=O)CSC[C@@H](C(=O)NCCOCCOCCOCCOCCC(N)=O)NC(=O)[C@H](Cc2ccc(O)cc2)N(C)C(=O)[C@H](Cc2cccnc2)NC(=O)[C@H](CCCNC(=N)N)NC(=O)[C@H](CCC(N)=O)NC(=O)[C@H]([C@@H](C)CC)NC1=O` [compound 105] ({CH2CO}-AV[NMePhe(3-Cl)]V[Trp(1-CH2COOH)]NYY(Carboxymethyl)[Nva(3-Et)]IQR[3Pal][NMeY]C[PEG4]-NH2; thioether N-15), the equilibrium dissociation constant (Kd) in assay [1] is 10.6 nM; in assay [2], 67.9 nM.

Consider `CCC(CC)[C@@H]1NC(=O)[C@H](Cc2ccc(OCC(=O)O)cc2)NC(=O)[C@H](Cc2ccc(O)cc2)NC(=O)[C@H](CC(N)=O)NC(=O)[C@H](Cc2c[nH]c3ncccc23)NC(=O)[C@H](C(C)C)NC(=O)[C@H](Cc2cccc(Cl)c2)N(C)C(=O)[C@H](C(C)C)NC(=O)[C@H](C)NC(=O)CSC[C@@H](C(=O)NCCOCCOCCOCCOCCC(N)=O)NC(=O)[C@H](Cc2ccc(O)cc2)N(C)C(=O)[C@H](Cc2cccc(C(=O)O)c2)NC(=O)[C@H](CCCNC(=N)N)NC(=O)[C@H](CCC(=O)NCCOCCOCCOCCOCCOCCOCCOCCOC)NC(=O)[C@H]([C@@H](C)CC)NC1=O` [compound 106] ({CH2CO}-AV[NMePhe(3-Cl)]V[Trp(7-aza)]NYY(Carboxymethyl)[Nva(3-Et)]IE(NH(CH2CH2O)8Me)R[Phe(3-COOH)][NMeY]C[PEG4]-NH2; thioether N-15), for which the Kd stood at 26 nM in assay [1] and 90.1 nM in assay [2].

For the molecule `CCC(CC)[C@@H]1NC(=O)[C@H](Cc2ccc(OCC(=O)O)cc2)NC(=O)[C@H](Cc2ccc(O)cc2)NC(=O)[C@H](CC(N)=O)NC(=O)[C@H](Cc2c[nH]c3ncccc23)NC(=O)[C@H](C(C)C)NC(=O)[C@H](Cc2cccc(Cl)c2)N(C)C(=O)[C@H](C(C)C)NC(=O)[C@H](C)NC(=O)CSC[C@@H](C(=O)NCCOCCOCCOCCOCCC(N)=O)NC(=O)[C@H](Cc2ccc(C(=O)O)cc2)N(C)C(=O)[C@H](Cc2cccc(C(=O)O)c2)NC(=O)[C@H](CCCNC(=N)N)NC(=O)[C@H](CCC(N)=O)NC(=O)[C@H]([C@@H](C)CC)NC1=O` [compound 108] ({CH2CO}-AV[NMePhe(3-Cl)]V[Trp(7-aza)]NYY(Carboxymethyl)[Nva(3-Et)]IQR[Phe(3-COOH)][NMePhe(4-COOH)]C[PEG4]-NH2; thioether N-15), the Kd in assay [1] was 13.9 nM; in assay [2], 36.1 nM.

In the case of `CCC(CC)[C@@H]1NC(=O)[C@H](Cc2ccc(OCC(=O)O)cc2)NC(=O)[C@H](Cc2ccc(O)cc2)NC(=O)[C@H](CC(N)=O)NC(=O)[C@H](Cc2cn(CC(=O)O)c3ccccc23)NC(=O)[C@H](C(C)C)NC(=O)[C@H](Cc2cccc(Cl)c2)N(C)C(=O)[C@H](C(C)C)NC(=O)[C@H](C)NC(=O)CSC[C@@H](C(=O)NCCOCCOCCOCCOCCC(N)=O)NC(=O)[C@H](Cc2ccc(O)cc2)N(C)C(=O)[C@H](Cc2cccc(C(=O)O)c2)NC(=O)[C@H](CCCCN2CCOCC2)NC(=O)[C@H](CCCCN2CCOCC2)NC(=O)[C@H]([C@@H](C)CC)NC1=O` [compound 109] ({CH2CO}-AV[NMePhe(3-Cl)]V[Trp(1-CH2COOH)]NYY(Carboxymethyl)[Nva(3-Et)]I[Nle(6-morpholino)][Nle(6-morpholino)][Phe(3-COOH)][NMeY]C[PEG4]-NH2; thioether N-15), the Kd was determined as 6.99 nM in assay [1] and 11.1 nM in assay [2].
